{
  "source": "patent EP0381959B1",
  "about": "“Cyclohexaneacetamide derivatives” (F. HOFFMANN-LA ROCHE AG, priority 1989, dated 1990)",
  "tested_on": "male C57Bl/10 mice",
  "assay": "Morris water maze task (latency to locate hidden platform)",
  "format": "in vivo",
  "conditions": "Dose-Response (IP), intraperitoneal, dissolved in saline, 30 minutes prior to testing",
  "excerpt": "The test animals were male C57Bl/10 mice, weighing 17-21 grams at the time of testing. Mice were housed in groups of 10 and had ad lib access to food and water. Mice of this strain appear to be deficient in learning the water maze task and are therefore suitable for use in drug evaluation.[Symons, J.P., Davis, R.E., and Marriott J.G. Life Sciences, 1988, 42, 375-383.] The Morris water maze task requires an animal to attend to spatial cues in order to locate the position of a hidden platform submerged underwater. [Morris, B. G. Learning and Motivation , 1981, 12, 239-260, and Symons, J.P., Davis, R.E., and Marriott J.G. Life Sciences, 1988, 42, 375-383.] The maze consisted of a 60 cm x 60 cm x 60 cm transparent plexiglas chamber filled to a depth of 30 cm, leaving 30 cm of wall extended up from the water surface. The water was made opaque by the addition of powdered milk. The water temperature was maintained at 20 °C. Both distal cues (i.e., standard room objects) and proximal cues (that is, 20 cm x 22 cm unique black and white patterns pasted to the center of each of the four walls of the maze) were used. The submerged platform, 8 x 8 cm, 1 cm below the water's surface was positioned near one of the four corners of the maze. […] The time required for each animal to locate the platform on each of the four trials was recorded (latency). […]",
  "data": [
    {"molecule": "NC(=O)[C@@H]1CCCN1C(=O)[C@H](Cc1c[nH]cn1)NC(=O)[C@@H]1CCC(=O)N1", "note": "[TRH, pGlu-His-ProNH₂]", "values": [
      {"measurement": "Active Dose Range", "result": "0.1 to 0.3", "unit": "mg/kg"}
    ]}
  ]
}
